Laboratory results from patent US4552874A, “Pyrazolooxazines, pyrazolothiazines, and pryazoloquinolines and their use as medicaments” (Bayer Aktiengesellschaft, priority 1982, dated 1985).

Legend:
[1] = target: T1, Lipoxygenase in platelet (Homo sapiens, UniProt P18054); assay: Inhibition of lipoxygenase in washed human platelets (HETE synthesis from radioactively labelled arachidonic acid); type: cell-based; conditions: in vitro
T1 construct: the metabolism of radioactively labelled arachidonic acid on washed human platelets is used; endogenous in cells; host or cells: washed human platelets
T1 sequence (P18054 1-663): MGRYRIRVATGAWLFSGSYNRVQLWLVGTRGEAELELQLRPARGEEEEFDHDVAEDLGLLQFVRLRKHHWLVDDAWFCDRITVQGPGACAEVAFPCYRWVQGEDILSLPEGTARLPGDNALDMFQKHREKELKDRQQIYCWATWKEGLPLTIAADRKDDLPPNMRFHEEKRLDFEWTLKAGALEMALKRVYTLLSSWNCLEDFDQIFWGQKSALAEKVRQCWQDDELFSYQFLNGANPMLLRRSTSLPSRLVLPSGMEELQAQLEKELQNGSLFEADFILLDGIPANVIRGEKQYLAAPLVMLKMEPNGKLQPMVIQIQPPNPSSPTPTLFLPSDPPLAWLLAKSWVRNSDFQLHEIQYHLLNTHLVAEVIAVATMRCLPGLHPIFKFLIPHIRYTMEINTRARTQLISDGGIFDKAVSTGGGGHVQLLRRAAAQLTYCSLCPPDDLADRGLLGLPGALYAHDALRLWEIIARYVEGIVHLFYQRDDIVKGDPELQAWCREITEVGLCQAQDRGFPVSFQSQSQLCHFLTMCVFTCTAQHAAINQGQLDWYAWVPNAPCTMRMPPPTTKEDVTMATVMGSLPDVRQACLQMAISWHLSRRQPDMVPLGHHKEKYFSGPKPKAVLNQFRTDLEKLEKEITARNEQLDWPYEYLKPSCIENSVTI
Protocol: In this test method, the metabolism of radioactively labelled arachidonic acid on washed human platelets is used. In this in vitro test, the radioactively labelled metabolites are extracted from the reaction mixture and separated by thin-layer chromatography. The autoradiogram is evaluated on a thin-layer scanner. Under these test conditions, the labelled metabolites are separated from the unreacted arachidonic acid and can then be evaluated quantitatively. The distribution of radioactivity over the products of cyclooxygenase formed during the metabolism, thromboxane B2 (TXB2) and 12-hydroxy-5,8,10-heptadecatrienoic acid (HHT) and the product of lipoxygenase, 12-hydroxy-5,8,11,14-eicosatetraenoic acid (HETE), under the influence of the inhibitors provides a measure of the inhibition of the enzymes.
The inhibition of lipoxygenase by the compounds according to the invention can be measured by the inhibition of synthesis of HETE. It emerges that the synthesis of TXB2 and of HHT remains unaffected, whilst the conversion of arachidonic acid decreases. […] (Compare Table 1).

[2] = system: Lipoxygenase in PMN Leucocytes; assay: Inhibition of lipoxygenase in PMN leucocytes (liberation of 5-HETE and leukotriene B4); type: cell-based, humans and rabbits; conditions: in vitro
Protocol: The polymorphonuclear leucocytes of humans and of rabbits metabolise arachidonic acid to 5-hydroxy-5,8,11,14-eicosatetraenoic acid (5-HETE) and leukotriene B4 (5S, 12R-dihydroxy-6 cis, 8,10-trans-14 cis-eicosatetraenoic acid). The inhibition of the liberation of 5-HETE and leukotriene B4 from the leucocytes provides a measure of the lipoxygenase-inhibitory effect of the compounds according to the invention. (Compare Table 1).
The test with human leucocytes is carried out by the method of Borgeat and Samuelsson (j. Biol. Chem. 254; 2643, 1979 and Proc. Natl. Acad. Sci. USA, 76, 2148 (1979), and with rabbit leucocytes by the method of Walker and Parish (Inter. Archs. Allergy appl. Immun. 66, 83, 1981).

[3] = systemic administration (for example orally); cited from earlier work
[4] = system: cyclooxygenase; conditions: cited from earlier work
[5] = system: prostacyclin synthesis in strips of rabbit aorta; assay: Stimulation of prostacyclin synthesis in strips of rabbit aorta; type: cell-based; conditions: Oryctolagus cuniculus, 1 h, read-out: Stimulation in % compared to control (prostacyclin synthesis); for activation at 2 µg/mL: 2.10^6 g/ml of substance
[6] = system: melanoma B 16; assay: Inhibition of the initiation of pulmonary metastases in melanoma B 16; type: in vivo; conditions: melanoma B 16, mouse, three i.p. administrations of 1 mg/kg
From the text: The compounds according to the invention are also active in vivo. […] The compounds according to the invention also reduce the formation of oedema in the model of carrageenan inflammation, (compare Table 3) and inhibit the formation of metastases from B-16 melanoma (method of Honn, et. al. Science 212, 1270, 1981).

Row | Minimum concentration (g/ml) for inhibition of Lipoxygenase in platelet [1] | SMILES | Minimum concentration (g/ml) for inhibition of Lipoxygenase in PMN Leucocytes [2] | other results
1 | 10^-5 g/ml | CN(C)S(=O)(=O)c1ccc2c(c1)Oc1cn[nH]c1N2 | – | –
2 | 10^-6 g/ml | Cn1ncc2c1Nc1ccccc1O2 | 10^-6 g/ml | –
3 | 10^-6 g/ml | Cn1ncc2c1Nc1cc(Cl)ccc1O2 | 10^-6 g/ml | –
4 | 10^-6 g/ml | Clc1ccc2c(c1)Nc1[nH]ncc1S2 | – | –
5 | 10^-6 g/ml | Cc1ccc2c(c1)Nc1[nH]ncc1S2 | 10^-6 g/ml | –
6 | – | NC1=NN(c2cccc(C(F)(F)F)c2)CC1 [3-amino-1-(m-trifluoromethylphenyl)-2-pyrazoline] | – | toxic side effects, in words [3]: toxic side effects on systemic administration (for example orally); action of known lipoxygenase inhibitors, in words [4]: either also act as inhibitors of cyclooxygenase or only act at very high concentrations
7 | – | CCCCCC#CCC#CCC#CCC#CCCCC(=O)O [5,8,11,14-eicosatetraynoic acid] | – | action of known lipoxygenase inhibitors, in words [4]: either also act as inhibitors of cyclooxygenase or only act at very high concentrations
8 | – | c1ccc2c(c1)Nc1[nH]ncc1S2 [Compound 12] | – | activation at 2 µg/mL [5]: 80%
9 | – | c1cnc2c(c1)Oc1cn[nH]c1N2 [Compound 17] | – | activation at 2 µg/mL [5]: 200%
10 | – | c1ccc2cc3c(cc2c1)Nc1[nH]ncc1O3 [Compound 18] | – | % Inhibition of the initiation of pulmonary metastases [6]: 36%
11 | – | Cn1ncc2c1Nc1cc3ccccc3cc1O2 [Compound 19] | – | % Inhibition of the initiation of pulmonary metastases [6]: 30%
12 | – | CN1c2ccccc2Oc2cnn(C)c21 [Compound 24] | – | activation at 10 µg/mL ([5]; at 10^-5 g/ml substance concentration): 100%
13 | 10^-6 g/ml | Clc1ccc2c(c1)Nc1[nH]ncc1O2 [drawing 13] | 10^-6 g/ml | –
14 | 10^-6 g/ml | Cc1ccc2c(c1)Nc1[nH]ncc1O2 [drawing 14] | 10^-6 g/ml | –
15 | 10^-6 g/ml | c1ccc2cc3c(cc2c1)Nc1[nH]ncc1O3 [drawing 29] | 10^-6 g/ml | –
16 | – | CC(Cc1ccc(O)c(O)c1)C(C)Cc1ccc(O)c(O)c1 (stereo not drawn) [nordihydroguaiaretic acid] | – | action of known lipoxygenase inhibitors, in words [4]: either also act as inhibitors of cyclooxygenase or only act at very high concentrations
17 | – | O=C1CCN(c2ccccc2)N1 [phenidone] | – | action of known lipoxygenase inhibitors, in words [4]: either also act as inhibitors of cyclooxygenase or only act at very high concentrations
